≈ marks a conversion by molar mass, not a printed value. Read-outs that look alike come from different tables or passages of the source.
Tests used:
Type in all cases: cell-based
[1] = system: Pseudomonas aeruginosa 1592 E; assay: MIC, standard strain 13; conditions: P. aeruginosa 1592 E, two-fold dilution, Muller Hinton agar, 10^7 CFU/ml, 37° C., 18 hours, read-out: Minimal Inhibitory Concentration(MIC)
Protocol: (§1) In order to illustrate antibiotic effectiveness of the compounds of the present invention, the minimal inhibitory concentrations (MIC's) of the representative compounds were determined against standard strains and compared with ceftazidime and cefpirome, which were used as control compounds.
(§2) The MIC values were taken by employing a two-fold dilution method: that is, two-fold serial dilutions of each of the test compounds were made from initial concentration of […]; each 1.5 ml of them was dispersed in 13.5 ml of Muller Hinton agar medium to adjust to […]; the standard test strain which had the concentration of 10^7 CFU/ml was inoculated by medium;and these were incubated at 37° C. for 18 hours.
(§3) The test used twenty kinds of standard test strains which induced urinary tract infections, respiratory organ infections, skin soft tissue infections, plasma infections, gastrointestinal infections, central nervous system infections, most of which produce β-lactamase. The standard test strains used are as follows:
13. Pseudomonas aeruginosa 1592 E

[2] = system: Staphylococcus aureus SG 511; assay: MIC, standard strain 4; conditions: SG511, S. aureus SG 511, two-fold dilution, Muller Hinton agar, 10^7 CFU/ml, 37° C., 18 hours, read-out: Minimal Inhibitory Concentration(MIC)
Protocol: as §1, §2, §3
4. Staphylococcus aureus SG 511

Streptococcus faecium 8b = assay: MIC, standard strain 3; conditions: Enterococcus faecium; S. faecium 8b; two-fold dilution, Muller Hinton agar, 10^7 CFU/ml, 37° C., 18 hours; read-out: Minimal Inhibitory Concentration(MIC)
Protocol: as §1, §2, §3
3. Streptococcus faecium 8b

Salmonella typhimurium = assay: MIC, standard strain 16; conditions: Salmonella enterica; S. typhimurium; two-fold dilution, Muller Hinton agar, 10^7 CFU/ml, 37° C., 18 hours; read-out: Minimal Inhibitory Concentration(MIC)
Protocol: as §1, §2, §3
16. Salmonella typhimurium

Escherichia coli 1507 E = assay: MIC, standard strain 11; conditions: E. coli 1507 E, two-fold dilution, Muller Hinton agar, 10^7 CFU/ml, 37° C., 18 hours, read-out: Minimal Inhibitory Concentration(MIC)
Protocol: as §1, §2
(§4) The test used twenty kinds of standard test strains which induced urinary tract infections, respiratory organ infections, skin soft tissue infections, plasma infections, gastrointestinal infections, central nervous system infections, most of which produce β-lactamase.

[3] = system: Streptococcus pyogenes A 77; assay: MIC, standard strain 2; conditions: A77, S. pyogenes A 77, two-fold dilution, Muller Hinton agar, 10^7 CFU/ml, 37° C., 18 hours, read-out: Minimal Inhibitory Concentration(MIC)
Protocol: as §1, §2, §3
2. Streptococcus pyogenes A 77

[4] = system: Pseudomonas aeruginosa 1771; assay: MIC, standard strain 14; conditions: Pseudomonas aeruginosa; P. aeruginosa 1771; two-fold dilution, Muller Hinton agar, 10^7 CFU/ml, 37° C., 18 hours; read-out: Minimal Inhibitory Concentration(MIC)
Protocol: as §1, §2, §3
14. Pseudomonas aeruginosa 1771

[5] = system: Pseudomonas aeruginosa 9.027; assay: MIC, standard strain 12; conditions: Pseudomonas aeruginosa; P. aeruginosa 9.027; two-fold dilution, Muller Hinton agar, 10^7 CFU/ml, 37° C., 18 hours; read-out: Minimal Inhibitory Concentration(MIC)
Protocol: as §1, §2, §3
12. Pseudomonas aeruginosa 9.027

Escherichia coli 0 55 = assay: MIC, standard strain 7; conditions: 055, E. coli 0 55, two-fold dilution, Muller Hinton agar, 10^7 CFU/ml, 37° C., 18 hours, read-out: Minimal Inhibitory Concentration(MIC)
Protocol: as §1, §2, §4

[6] = system: Klebsiella aerogenes 1552 E; assay: MIC, standard strain 18; conditions: K. aerogenes 1552 E, two-fold dilution, Muller Hinton agar, 10^7 CFU/ml, 37° C., 18 hours, read-out: Minimal Inhibitory Concentration(MIC)
Protocol: as §1, §2, §3
18. Klebsiella aerogenes 1552 E

Escherichia coli TEM = assay: MIC, standard strain 10; conditions: 18 h, read-out: Minimal Inhibitory Concentration(MIC)
Protocol: as §1, §2, §4

[7] = system: Staphylococcus aureus 285; assay: MIC, standard strain 5; conditions: read-out: Minimal Inhibitory Concentration(MIC)
Protocol: as §1, §2, §3
5. Staphylococcus aureus 285

[8] = system: Enterobacter cloacae P 99; assay: MIC, standard strain 19; conditions: P99, 18 h, read-out: Minimal Inhibitory Concentration(MIC)
Protocol: as §1, §2, §3
19. Enterobacter cloacae P 99

Escherichia coli DC 2 = assay: MIC, standard strain 9; conditions: DC2, E. coli DC 2, two-fold dilution, Muller Hinton agar, 10^7 CFU/ml, 37° C., 18 hours, read-out: Minimal Inhibitory Concentration(MIC)
Protocol: as §1, §2, §4

[9] = system: Streptococcus pyogenes A 308; assay: MIC, standard strain 1; conditions: read-out: Minimal Inhibitory Concentration(MIC)
Protocol: as §1, §2, §3
1. Streptococcus pyogenes A 308

[10] = system: Pseudomonas aeruginosa 1771M; assay: MIC, standard strain 15; conditions: 18 h, read-out: Minimal Inhibitory Concentration(MIC)
Protocol: as §1, §2, §3
15. Pseudomonas aeruginosa 1771M

Escherichia coli DC 0 = assay: MIC, standard strain 8; conditions: DC0, E. coli DC 0, two-fold dilution, Muller Hinton agar, 10^7 CFU/ml, 37° C., 18 hours, read-out: Minimal Inhibitory Concentration(MIC)
Protocol: as §1, §2, §4

[11] = system: Enterobacter cloacae 1321 E; assay: MIC, standard strain 20; conditions: E. cloacae 1321 E, two-fold dilution, Muller Hinton agar, 10^7 CFU/ml, 37° C., 18 hours, read-out: Minimal Inhibitory Concentration(MIC)
Protocol: as §1, §2, §3
20. Enterobacter cloacae 1321 E

[12] = system: Staphylococcus aureus 503; assay: MIC, standard strain 6; conditions: Staphylococcus aureus; S. aureus 503; two-fold dilution, Muller Hinton agar, 10^7 CFU/ml, 37° C., 18 hours; read-out: Minimal Inhibitory Concentration(MIC)
Protocol: as §1, §2, §3
6. Staphylococcus aureus 503

[13] = Staphylococcus aureus, S. aureus 285, two-fold dilution, Muller Hinton agar, 10^7 CFU/ml, 37° C., 18 hours

Structure (SMILES)	MIC [1]	MIC [2]	MIC (Streptococcus faecium 8b)	MIC (Salmonella typhimurium)	MIC (Escherichia coli 1507 E)	MIC [3]	MIC [4]	MIC [5]	MIC (Escherichia coli 0 55)	MIC [6]	MIC (Escherichia coli TEM)	MIC [8]	MIC (Escherichia coli DC 2)	MIC ([9]; A308, 18 h)	MIC [10]	MIC (Escherichia coli DC 0)	MIC [11]	MIC [12]	MIC [7, 13]	also measured
CCOC(=O)c1cc[n+](CC2=C(C(=O)[O-])N3C(=O)[C@@H](NC(=O)/C(=N\OC)c4csc(N)n4)[C@H]3SC2)c2c1CCC2 [Example 1]	12500 µg/mL (≈ 21300 µM)	1560 µg/mL (≈ 2660 µM)	25000 µg/mL (≈ 42600 µM)	49 µg/mL (≈ 83.5 µM)	49 µg/mL (≈ 83.5 µM)	7 µg/mL (≈ 11.9 µM)	6250 µg/mL (≈ 10700 µM)	12500 µg/mL (≈ 21300 µM)	49 µg/mL (≈ 83.5 µM)	49 µg/mL (≈ 83.5 µM)	391 µg/mL (≈ 666 µM)	25000 µg/mL (≈ 42600 µM)	25 µg/mL (≈ 42.6 µM)	7 µg/mL (≈ 11.9 µM)	391 µg/mL (≈ 666 µM)	49 µg/mL (≈ 83.5 µM)	25 µg/mL (≈ 42.6 µM)	781 µg/mL (≈ 1330 µM)		MIC ([7]; Staphylococcus aureus, 285, 18 h): 3120 µg/mL (≈ 5330 µM)
CO/N=C(\C(=O)N[C@@H]1C(=O)N2C(C(=O)[O-])=C(C[n+]3ccc(C(=O)O)c4c3CCC4)CS[C@H]12)c1csc(N)n1 [Example 2]	12500 µg/mL (≈ 22400 µM)	6250 µg/mL (≈ 11200 µM)	25000 µg/mL (≈ 44800 µM)	49 µg/mL (≈ 87.7 µM)	25 µg/mL (≈ 44.8 µM)	7 µg/mL (≈ 12.5 µM)	3120 µg/mL (≈ 5590 µM)	12500 µg/mL (≈ 22400 µM)	25 µg/mL (≈ 44.8 µM)	25 µg/mL (≈ 44.8 µM)	781 µg/mL (≈ 1400 µM)	100000 µg/mL (≈ 179000 µM)	49 µg/mL (≈ 87.7 µM)		391 µg/mL (≈ 700 µM)	49 µg/mL (≈ 87.7 µM)	25 µg/mL (≈ 44.8 µM)	3120 µg/mL (≈ 5590 µM)	6250 µg/mL (≈ 11200 µM)	MIC ([9]; A308, S. pyogenes A 308, two-fold dilution, Muller Hinton agar, 10^7 CFU/ml, 37° C., 18 hours): 25 µg/mL (≈ 44.8 µM)
CCO/N=C(\C(=O)N[C@@H]1C(=O)N2C(C(=O)[O-])=C(C[n+]3ccc(C(N)=O)c4c3CCC4)CS[C@H]12)c1csc(N)n1 [Example 13, 7-β-[(Z)-2-(2-aminothiazol-4-yl)-2-ethoxyiminoacetamido]-3-[(2,3-cyclopenteno-4-carbamoyl-1-pyridinium)methyl]-3-cephem-4-carboxylate]	3120 µg/mL (≈ 5470 µM)	781 µg/mL (≈ 1370 µM)	50000 µg/mL (≈ 87500 µM)	49 µg/mL (≈ 85.7 µM)	98 µg/mL (≈ 171 µM)	4 µg/mL (≈ 7 µM)	1560 µg/mL (≈ 2730 µM)	6250 µg/mL (≈ 10900 µM)	25 µg/mL (≈ 43.7 µM)	49 µg/mL (≈ 85.7 µM)	195 µg/mL (≈ 341 µM)	12500 µg/mL (≈ 21900 µM)	49 µg/mL (≈ 85.7 µM)	13 µg/mL (≈ 22.7 µM)	195 µg/mL (≈ 341 µM)	98 µg/mL (≈ 171 µM)	25 µg/mL (≈ 43.7 µM)	391 µg/mL (≈ 684 µM)	3120 µg/mL (≈ 5470 µM)	
